# Assay results published in patent US8623340B2, “Omega-cyclohexylalkan-1-oles and use thereof as antimicrobial actives to combat body odor” (Symrise AG, priority 2009, dated 2014).
# How the values were obtained:
# Assay type in all cases: cell-based
# [1] = tested on: Staphylococcus epidermidis (ATCC 12228); test: quantitative suspension test
# [2] = tested on: Staphylococcus epidermidis (ATCC 12228); test: MIC determination by turbidimetric growth curves; conditions: ATCC12228, 16 h, 37° C., turbidimetry 620 nm, read-out: MIC (complete inhibition of growth, usage concentration)
# Excerpt: (§1) The observation that the compounds of formula (I) are very particularly suitable for combating microorganisms which are responsible for body odor is based on a series of investigations relating to the particularly relevant microorganisms Staphylococcus epidermidis Corynebacterium xerosis, and Brevibacterium epidermidis. The antimicrobial action of the compounds of formula (I) is here detected with the assistance of a turbidimetric measurement method. Turbidity measurement is used to establish growth curves for the particular microorganism in the presence and absence of an antimicrobial active ingredient. A possible inhibitory action of the test substance used is identified from the profile of the growth curves. Solutions with saline or DMSO for 100% growth are prepared as a negative control. The active substances to be investigated are first diluted in DMSO in reaction vessels. Dilution is carried out in accordance with the concentration range to be tested and corresponds in each case to 100 times the concentration of the subsequent final concentration in the test Testing is usually begun with a final concentration of 2000 ppm (corresponding to 0.2 wt.-%) in the test. Growth curves at final concentrations of 1000 ppm, 500 ppm, 250 ppm, 125 ppm, 64 ppm, 32 ppm, 16 ppm and 8 ppm are subsequently determined. The bacterial cultures are then incubated in the presence of the various final concentrations of antimicrobial active ingredient for 16 h (incubation temperature: 37° C.). The absorption values (wavelength 620 nm; measurement interval: 20 minutes) obtained over the 16 hour period of turbidimetric measurement are recorded and exported into the spreadsheet program MS Excel. Means from in each case three parallel batches are calculated and used as the basis for establishing growth curves. The curves of the individual test sample concentrations are compared with those for the negative controls and the MIC value (minimum inhibitory concentration) is determined. The MIC value is the concentration at which no further growth is observable by turbidimetry.
# [3] = tested on: Corynebacterium xerosis (DSM 20743); test: MIC determination by turbidimetric growth curves; conditions: 16 h, 37° C., turbidimetry 620 nm
# Excerpt: as §1
# [4] = tested on: Brevibacterium epidermidis (ATCC 35514); test: MIC determination by turbidimetric growth curves; conditions: 16 h, 37° C., turbidimetry 620 nm
# Excerpt: as §1
# [5] = tested on: Brevibacterium epidermidis (ATCC 35514); test: quantitative suspension test
# [6] = tested on: Corynebacterium xerosis (DSM 20743, ATCC 373) biofilm; test: Biofilm formation, classic assay (crystal violet staining CV580); conditions: 12.5 μg/ml
# Excerpt: The recognition that the compounds of formula (I) are also very particularly suitable for either inhibition of initial biofilm formation and stagnation or even detachment of pre-existing biofilms is based on a series of investigations relating to the particularly relevant microorganism Corynebacterium xerosis. The antimicrobial action of the compounds of formula (I) on biofilms is hereby detected with the assistance of a staining method. Crystal violet staining is used to quantify amount of biofilm in the presence and absence of an antimicrobial active ingredient. A possible inhibitory action of the test substance used is identified from the staining profile. Corynebacterium xerosis can adhere to artificial laboratory surfaces and contribute to biofilm formation much the same way as it can do on skin in vivo. Therefore we furtheron established a test system to evaluate the influence of antimicrobial active compounds of formula (I) on Corynebacterium xerosis forming a biofilm or already residing in a biofilm. […] Biofilm formation can be analyzed by crystal violet staining with subsequent spectroscopic quantitation at 580 nm (CV580). […] Anti-microbial effects of test compounds on biofilm formation was determined by CV580 crystal violet staining 18-24 hours after inoculation and several washing steps that are needed to separate planctonic grown microorganisms.
# [7] = tested on: Corynebacterium xerosis (DSM 20743); test: quantitative suspension test
# [8] = tested on: Corynebacterium xerosis (DSM 20743, ATCC 373) biofilm; test: Biofilm, mid-log assay on pre-existing biofilm (crystal violet staining CV580); conditions: 12.5 μg
# Excerpt: The recognition that the compounds of formula (I) are also very particularly suitable for either inhibition of initial biofilm formation and stagnation or even detachment of pre-existing biofilms is based on a series of investigations relating to the particularly relevant microorganism Corynebacterium xerosis. The antimicrobial action of the compounds of formula (I) on biofilms is hereby detected with the assistance of a staining method. Crystal violet staining is used to quantify amount of biofilm in the presence and absence of an antimicrobial active ingredient. A possible inhibitory action of the test substance used is identified from the staining profile. […] Biofilm formation can be analyzed by crystal violet staining with subsequent spectroscopic quantitation at 580 nm (CV580). […] Optical density OD580 was then measured followed by crystal violet staining and spectroscopic quantitation of the biofilm at 580 nm (CV580). Mid-log time point was determined by cultivating untreated C. xerosis cells on separate control plates. CV580 crystal violet staining data of untreated control cells at mid-log were recorded. […] CV580 of untreated control samples was also recorded. […] Thus, untreated control cells will reach a value of 200%, corresponding to twice the exactly determined mid-log time point (half-maximal values for CV580; which was set 100%). […]
SMILES,antimicrobial activity in quantitative suspension test [1],MIC [2] [µg/mL],concentration establishing inhibition of the growth [3],concentration establishing inhibition of the growth [4],antimicrobial activity in quantitative suspension test [5],biofilm formation inhibition [6] [%],antimicrobial activity in quantitative suspension test [7],biofilm observed compared to the untreated control (set to 200%; mid-log value 100%) [8] [%]
CC(CO)CCCC1CCCCC1 (stereo not shown) [5-cyclohexyl-2-methyl-pentanol],confirm the antimicrobial activity,64,below 0.2 wt. %,below 0.2 wt. %,confirm the antimicrobial activity,92,confirm the antimicrobial activity,53
CCCC(CO)CCCC1CCCCC1 (stereo not shown) [5-cyclohexyl-2-n-propyl-pentanol],confirm the antimicrobial activity,16,below 0.2 wt. %,below 0.2 wt. %,confirm the antimicrobial activity,65,confirm the antimicrobial activity,100
